Tests used:
[1] = biological target: KRAS G12C Lite (SEQ ID NO:3) (Homo sapiens, UniProt P01116, C118S/C51S/C80S/G12C/S136P/S39C); experiment: Intact mass analysis (LC-MS) of covalent modification, KRAS G12C Lite; format: binding; set-up: key to KRAS Lite Modification: a: KRAS Lite modified; conditions: intact mass spectrometry; covalent modification of KRAS G12C Lite
Experimental: The covalent modification of the proteins with the compounds were evaluated using intact mass analysis by liquid chromatography-mass spectrometry instrument (LC-MS/MS).
The reaction solution (20 μL) was prepared in 96-well plate and contained the protein (2 μM), the compound (100 μM), HEPES buffer (20 mM, pH 8), 2% DMSO, 2% glycerol, and 150 mM NaCl. The reaction was allowed to proceed for 24 h at 25° C. The reaction solution (1 μL) was injected into the LC/MS/MS without any further sample preparation.
The LC-MS/MS instrument comprises of a Waters G2-XS quadrupole-time of flight (QTof) mass spectrometer and a Waters Acuity I-class Ultra-High Performance Liquid Chromatography (UPLC) system. The I-class UPLC system includes a binary solvent manager (BSM), and an Acquity sample manager (SM). The mobile phase consisted of: A) 0.1% (v/v) formic acid in MilliQ water; B) 0.1% (v/v) formic acid acetonitrile. Gradients were run over 5 min and proceeded as follows: A:B, 85:15, 0.0-0.7 min, 85:15→15:85, 0.7-1.5 min, 10:90, 1.5-4 min, 10:90→85:15, 4-4.5 min, 85:15, 4.5-5 min. The analytical column was a Waters BEH C4 column 1.7 μm (50×1 mm) column with pore sizes of 300 Å. The TOF MS data was collected in positive ion mode (m/z of 400-2000 Da) using MassLynx software (Waters).
The spectral deconvolution was performed using UNIFI software (Waters). The added mass of the protein upon covalent modification to cysteine residues were specified. Multiple modification of up to 8 cysteine was allowed. All the adducts with signal intensities of <2% of the base peak were ignored. The % modification was calculated as the adduct signal intensity over the total intensities of the protein peaks and the adducts.

[2] = test system: phospho-ERK1/2 in MIA PaCa-2 cells (express KRAS G12C); experiment: ERK1/2 phosphorylation in MIA PaCa-2 cells; format: cell-based, human; set-up: key: X: KRAS G12C bound and modulated in cells
Experimental: MIA PaCa-2 cells were cultured in Dulbecco's Modified Eagle's Medium (Wisent) supplemented with 10% FBS, 2.5% horse serum, and 1% penicillin/streptomycin. Cells were seeded in 6-well plates at 500,000 cells/well and incubated at 37° C., 5% CO2 for 16 hours. Cells were treated with the indicated concentrations of compound or DMSO alone and incubated at 37° C., 5% CO2 for 6 or 24 hours. Conditioned media was discarded, and adherent cells were washed with PBS before they were scraped. Cell suspensions were centrifugated at 2,000 RPM for 5 minutes at 4° C. and supernatants were discarded. Cell pellets were resuspended with 1×RIPA buffer (Millipore) and incubated on ice for 15 minutes. Protein lysates were extracted by centrifugating at 20,000 RPM for 20 minutes at 4° C. Proteins were separated and total KRas protein levels were quantified by Simple Western Immunoassay (ProteinSimple) using the 2-40 kDa Separation Module for Jess according to the manufacturer's protocol, using a protein concentration of 0.5 μg/μl and antibodies targeting KRas (clone #4F3, Sigma) and GAPDH (clone #14C10, Cell Signaling) diluted to 1:10 and 1:1600, respectively, where the latter was used as a loading control. A 3:1 ratio of rabbit to mouse HRP-conjugated secondary antibodies was used for detection. KRas protein levels were quantified relative to GAPDH loading levels and subsequently normalized to the DMSO control. Phosphorylated ERK1/2 levels were quantified by Simple Western Immunoassay (ProteinSimple) using the Protein Normalization Assay Module for Jess according to the manufacturer's protocol using a protein concentration of 0.5 μg/μl and an antibody targeting phosphor-ERK1/2 (clone #D13.14.4E, Cell Signalling) diluted to 1:10. Phosphorylated ERK1/2 levels were normalized to the Jess Protein Normalization Reagent loading control and subsequently to the DMSO control.
MIA PaCa-2 cells were cultured in Dulbecco's Modified Eagle's Medium (Wisent) supplemented with 10% FBS, 2.5% horse serum, and 1% penicillin/streptomycin. Cells were seeded in 96-well plates at a density of 25,000 cells/well and incubated at 37° C., 5% CO2 for 24 hours. The next day, cells were starved in cell culture media containing 1% FBS only at 37° C., 5% CO2 for 16 hours. Following starvation, serially-diluted compounds or DMSO alone were added to cells and incubated at 37° C., 5% CO2 for 1 or 3 hours. Prior to cell lysis, 25 ng/ml human epidermal growth factor (hEGF) (Sigma) was added to the cells and incubated at 37° C., 5% CO2 for 10 minutes. Conditioned media was discarded, and adherent cells lysed and basal ERK1/2 phosphorylation levels were measured using the Phospho-ERK (Thr202/Tyr204) Cellular HTRF kit (Perkin Elmer) according to the manufacturer's protocol. The fluorescent signal of the acceptor antibody at a wavelength of 665 nm was normalized to that of the donor antibody at 620 nm. HTRF ratios were plotted and relative IC50 values were obtained using Prism (GraphPad).

KRAS G12C = KRAS G12C (Homo sapiens, UniProt P01116, G12C); experiment: SOS1-catalyzed KRAS coupled nucleotide exchange assay (Alpha technology); format: biochemical; set-up: His; key: A: KRAS G12C bound and modulated; conditions: inhibition of SOS1 mediated KRAS nucleotide exchange
Experimental: Method I: The inhibition of the SOS1-catalyzed nucleotide exchange activity of KRAS (e.g., KRAS G12C/C118A) was measured using Alpha (Amplified Luminescent Proximity Homogeneous Assay) technology. 20 nM GDP-bound human KRAS (G12C/C118A) protein was incubated with two-fold serially-diluted test compound or DMSO for 5 minutes at ambient temperature in reaction buffer (25 mM HEPES, pH 7.4; 10 mM MgCl2; 0.01% Triton X-100). For all subsequent steps, DTT was added to the reaction buffer at a final concentration of 1 mM. Next, GTP and SOS-1 were added in DTT-reaction buffer at final concentrations of 1.25 mM or 500 nM, respectively, and incubated at RT for 30 minutes. Finally, c-RAF RBD (50 nM final), Alpha glutathione donor beads (PerkinElmer; 20 μg/mL final), and AlphaLISAnickel chelate acceptor beads (PerkinElmer; 20 μg/mL final), all diluted in DTT-reaction buffer, were added. The reaction mixture was incubated at RT for 5 min, and then the plates were read on an EnVision® Multilabel Reader using the AlphaScreen protocol. Luminescence signal was measured at 570 nm following a 180 ms excitation at 680 nm. Signal intensity corresponded with the association of c-RAF RBD with GTP-bound KRAS G12C/C118A and was normalized to DMSO control.
Method II: Inhibition of the SOS1-catalyzed nucleotide exchange activity of KRAS^G12C was measured using Alpha technology (PerkinElmer). 50 nM GDP-bound human KRAS^G12C protein was incubated with serially-diluted compound or DMSO for 2 hrs at RT in RBD-RAS binding buffer (BPSBioscience). 1 mM GTP and 500 nM SOS-1 were added to the reaction mixture and incubated at RT for 30 min. GST-tagged RBD-cRAF was then added to the reaction mixture at a final concentration of 2.5 nM and incubated at RT for 30 min. Finally, Alpha Glutathione acceptor beads and Nickel chelate donor beads (PerkinElmer) were diluted to 1:500 and 1:250, respectively, and added to the reaction mixture. The final reaction was incubated at RT for 30 min. Plates were read on a TECAN SPARK® Multiplate Reader. The luminescence signal was measured at 615 nm following excitation at 680 nm. Signal intensity was normalized to DMSO control.

| SMILES | KRAS Lite Modification [1] | pERK - MIA PaCa-2 - (6 hours, 5 uM) [2] | KRAS-SOS1 Nucleotide Exchange (KRAS G12C) |
| --- | --- | --- | --- |
| COc1c(F)c(F)c(F)c(F)c1S(=O)(=O)Nc1nc(=O)n(-c2c(C)ccnc2C(C)C)c2nc(-c3c(O)cccc3F)c(F)cc12 (atropisomer, axis not shown) [Compound 9A, 2,3,4,5-tetrafluoro-N-(6-fluoro-7-(2-fluoro-6-hydroxyphenyl)-1-(2-isopropyl-4-methylpyridin-3-yl)-2-oxo-1,2-dihydropyrido[2,3-d]pyrimidin-4-yl)-6-methoxybenzenesulfonamide] | a | X |  |
| Cc1ccnc(C(C)C)c1-n1c(=O)nc(NS(=O)(=O)c2c(F)c(F)c(F)c(F)c2OCF)c2cc(F)c(-c3c(O)cccc3F)nc21 (atropisomer, axis not shown) [Compound 10A, 2,3,4,5-tetrafluoro-N-(6-fluoro-7-(2-fluoro-6-hydroxyphenyl)-1-(2-isopropyl-4-methylpyridin-3-yl)-2-oxo-1,2-dihydropyrido[2,3-d]pyrimidin-4-yl)-6-(fluoromethoxy)benzenesulfonamide] |  | X | A |
| C[S+]([O-])c1c(F)c(F)c(F)c(F)c1N1CCN(c2ncnc3c2CCN(c2cccc4cccc(Cl)c24)C3)CC1 (racemic) [Compound 43A, 7-(8-chloronaphthalen-1-yl)-4-(4-(2,3,4,5-tetrafluoro-6-(methylsulfinyl)phenyl)piperazin-1-yl)-5,6,7,8-tetrahydropyrido[3,4-d]pyrimidine] | a |  |  |
| C[S+]([O-])c1c(F)c(F)c(F)c(F)c1N1CC(Nc2ncnc3cc(-c4ccccc4F)c(Cl)cc23)C1 (racemic) [Compound 48A, 6-chloro-7-(2-fluorophenyl)-N-(1-(2,3,4,5-tetrafluoro-6-(methylsulfinyl)phenyl)azetidin-3-yl)quinazolin-4-amine] |  | X | A |
| Cc1ccnc(C(C)C)c1-n1c(=O)nc(NS(=O)(=O)c2c(F)c(F)c(F)c(F)c2F)c2cc(F)c(Cl)nc21 [Compound 4A, N-(7-chloro-6-fluoro-1-(2-isopropyl-4-methylpyridin-3-yl)-2-oxo-1,2-dihydropyrido[2,3-d]pyrimidin-4-yl)-2,3,4,5,6-pentafluorobenzenesulfonamide] | a | X | A |
| COc1c(F)c(F)c(F)c(F)c1S(=O)(=O)Nc1nc(=O)n(-c2c(C)ccnc2C(C)C)c2nc(Cl)c(F)cc12 [Compound 8A, N-(7-chloro-6-fluoro-1-(2-isopropyl-4-methylpyridin-3-yl)-2-oxo-1,2-dihydropyrido[2,3-d]pyrimidin-4-yl)-2,3,4,5-tetrafluoro-6-methoxybenzenesulfonamide] | a |  |  |
| O=S(=O)(NC1CN(c2ncnc3c2CCN(c2cccc4ccccc24)C3)C1)c1c(F)c(F)c(F)c(F)c1F [Compound 20A, 2,3,4,5,6-pentafluoro-N-(1-(7-(naphthalen-1-yl)-5,6,7,8-tetrahydropyrido[3,4-d]pyrimidin-4-yl)azetidin-3-yl)benzenesulfonamide] |  | X | A |
| O=S(=O)(c1c(O)c(F)c(F)c(F)c1F)N1CCN(c2ncnc3c2CCN(c2cccc4ccccc24)C3)CC1 [Compound 31A, 2,3,4,5-tetrafluoro-6-((4-(7-(naphthalen-1-yl)-5,6,7,8-tetrahydropyrido[3,4-d]pyrimidin-4-yl)piperazin-1-yl)sulfonyl)phenol] | a |  | A |
| O=S(=O)(NC1CN(c2ncnc3c2CCN(c2cccc4ccccc24)C3)C1)c1c(F)c(F)c(F)c(F)c1C(F)(F)F [Compound 35A, 2,3,4,5-tetrafluoro-N-(1-(7-(naphthalen-1-yl)-5,6,7,8-tetrahydropyrido[3,4-d]pyrimidin-4-yl)azetidin-3-yl)-6-(trifluoromethyl)benzenesulfonamide] |  | X | A |
| O=S(=O)(c1c(F)c(F)c(F)c(F)c1C(F)(F)F)N1CCN(c2ncnc3c2CCN(c2cc(O)cc4ccccc24)C3)CC1 [Compound 41A, 4-(4-(4-((2,3,4,5-tetrafluoro-6-(trifluoromethyl)phenyl)sulfonyl)piperazin-1-yl)-5,8-dihydropyrido[3,4-d]pyrimidin-7(6H)-yl)naphthalen-2-ol] |  | X | A |
| Cc1cccc(C)c1-c1cc2nccc(N3CCN(c4c(F)c(F)c(F)c(F)c4S(C)(=O)=O)C[C@@H]3C)c2cc1Cl [Compound 44A, (S)-6-chloro-7-(2,6-dimethylphenyl)-4-(2-methyl-4-(2,3,4,5-tetrafluoro-6-(methylsulfonyl)phenyl)piperazin-1-yl)quinoline] |  | X | A |
